From ChEMBL document CHEMBL1201862, “PubChem BioAssay data set” (2004)
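Exposure lasted 48 hours, with cells grown in 96-well plates and compounds tested at five concentrations. Abbreviation: GI50, concentration required for 50% inhibition of growth.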 Active and inactive are the calls of the source. No stated cut-off is given here; in the data, active = GI50 up to about 1.1 µM and inactive = higher. Square brackets hold non-standard residues; d marks the D form. Peptide text beside a SMILES is read from it. * marks the point of attachment. NMeV = CN[C@H](C(=O)O)C(C)C; X28 = COc1ccc(CN*)c(OC)c1; Octanoyl = CCCCCCCC(=O)*; dNMeA = CN[C@H](C)C(=O)O

Experiments:
Test in all cases: NCI tumour cell line growth inhibition, 48 h
MDA-MB-231 = tested on: MDA-MB-231
HCT-116 = tested on: HCT-116
EKVX = tested on: EKVX
NCI-H460 = tested on: NCI-H460
A549 = tested on: A549
U-251 = tested on: U-251
KM12 = tested on: KM12
CCRF-CEM = tested on: CCRF-CEM
Malme-3M = tested on: Malme-3M
SW-620 = tested on: SW-620
HT-29 = tested on: HT-29
OVCAR-3 = tested on: OVCAR-3
BT-549 = tested on: BT-549
MOLT-4 = tested on: MOLT-4
CAKI-1 = tested on: CAKI-1
HOP-92 = tested on: HOP-92
SK-MEL-5 = tested on: SK-MEL-5
NCI-H23 = tested on: NCI-H23
SNB-75 = tested on: SNB-75
UO-31 = tested on: UO-31

Structure (SMILES)	GI50 (MDA-MB-231)	GI50 (HCT-116)	GI50 (EKVX)	GI50 (NCI-H460)	GI50 (A549)	GI50 (U-251)	GI50 (KM12)	GI50 (CCRF-CEM)	GI50 (Malme-3M)	GI50 (SW-620)	GI50 (HT-29)	GI50 (OVCAR-3)	GI50 (BT-549)	GI50 (MOLT-4)	GI50 (CAKI-1)	GI50 (HOP-92)	GI50 (SK-MEL-5)	GI50 (NCI-H23)	GI50 (SNB-75)	GI50 (UO-31)
Cc1cccc2c1CC(Cc1ccccc1C(=O)O)C2=O (stereo not given)	> 100 µM (inactive)	> 100 µM (inactive)	> 100 µM (inactive)	> 100 µM (inactive)	> 100 µM (inactive)	> 100 µM (inactive)	> 100 µM (inactive)	> 100 µM (inactive)	> 100 µM (inactive)	> 100 µM (inactive)	> 100 µM (inactive)	> 100 µM (inactive)	> 100 µM (inactive)	> 100 µM (inactive)	> 100 µM (inactive)	> 100 µM (inactive)	> 100 µM (inactive)	> 100 µM (inactive)	> 100 µM (inactive)	> 100 µM (inactive)
CCCCCCCC(=O)N[C@H](C(=O)N[C@H](C(=O)N(C)[C@H](C(=O)N1CCC[C@H]1C(=O)N(C)[C@H](C)C(=O)NCc1ccc(OC)cc1OC)C(C)C)C(C)C)C(C)C (Octanoyl-VV[NMeV]P[dNMeA]-X28)	10.5 µM (inactive)	5.93 µM (inactive)	6.89 µM (inactive)	8.34 µM (inactive)	6.55 µM (inactive)	4.79 µM (inactive)	4.62 µM (inactive)	11.5 µM (inactive)	8.17 µM (inactive)	7.71 µM (inactive)	4.23 µM (inactive)	4.2 µM (inactive)	11.8 µM (inactive)	14.2 µM (inactive)	16.4 µM (inactive)	7.6 µM (inactive)	3.3 µM (inactive)	13.6 µM (inactive)	21.3 µM (inactive)	17.6 µM (inactive)
O=C1C(CO)=C[C@@H](O)[C@H]2O[C@@H]12 [EPOXYDON]	> 100 µM (inactive)	31.1 µM (inactive)	> 100 µM (inactive)	53.1 µM (inactive)	77.3 µM (inactive)	61.5 µM (inactive)	> 100 µM (inactive)	30.7 µM (inactive)	> 100 µM (inactive)	37.9 µM (inactive)	> 100 µM (inactive)	> 100 µM (inactive)	98.9 µM (inactive)	> 100 µM (inactive)	> 100 µM (inactive)	> 100 µM (inactive)	> 100 µM (inactive)	65.6 µM (inactive)	37.4 µM (inactive)	> 100 µM (inactive)
C=C1C(=O)O[C@H]2[C@H]1[C@H](OC(=O)/C(C)=C\C)C[C@]1(CO1)[C@@H]1[C@H](OC(C)=O)C=C(C)[C@]21O [EUPAROTIN ACETATE]	16.5 µM (inactive)	6.58 µM (inactive)	17 µM (inactive)	28 µM (inactive)	69.2 µM (inactive)	21.9 µM (inactive)	19 µM (inactive)	2.36 µM (inactive)	13.5 µM (inactive)	8.85 µM (inactive)	12.4 µM (inactive)	14.7 µM (inactive)	8.13 µM (inactive)	5.18 µM (inactive)	17.3 µM (inactive)	15 µM (inactive)	17 µM (inactive)	23.2 µM (inactive)	67.5 µM (inactive)	13.7 µM (inactive)
C[C@]12CC[C@H]3[C@@H](CC[C@]4(O)C[C@@H](O)CC[C@]34C=O)[C@@]1(O)CC[C@@H]2C1=CC(=O)OC1 [STROPHANTHIDIN]	2.65 µM (inactive)	0.259 µM (active)	0.361 µM (active)	0.195 µM (active)	0.159 µM (active)	0.698 µM (active)	1.94 µM (inactive)	0.488 µM (active)	0.435 µM (active)	0.528 µM (active)	0.406 µM (active)	0.421 µM (active)	0.355 µM (active)	0.112 µM (active)	0.19 µM (active)	1.25 µM (inactive)	0.288 µM (active)	0.265 µM (active)	1.14 µM (inactive)	0.444 µM (active)
